Data from ChEMBL document CHEMBL3045931, “QSAR studies of antituberculosis drug using three-dimensional structure descriptors” (Med Chem Res, 2013).

System: Mycobacterium tuberculosis
Experiment: Antitubercular activity against Mycobacterium tuberculosis assessed as growth inhibition […]
Format: functional, organism-based
Conditions: read-out: log(1/IC50) (converted)

Compound | IC50 [µM]
O=C(c1cccc(Cl)c1)N1CCC(Cc2ccccc2)CC1 | 7.76
CC(C)(C)c1ccc(C(=O)N2CCN(c3cccc(C(F)(F)F)c3)CC2)cc1 | 100
O=C(c1ccccc1F)N1CCN(c2cccc(Cl)c2)CC1 | 13.8
O=C(c1ccccc1)N1CCN(c2ccccc2)CC1 | 38.9
Cc1cccc(C(=O)N2CCN(c3ccc([N+](=O)[O-])cc3)CC2)c1 | 15.5
Cc1ccc(C(=O)N2CCC(Cc3ccccc3)CC2)cc1 | 5.13
O=C(c1ccccc1)N1CCN(C(c2ccc(F)cc2)c2ccc(F)cc2)CC1 | 2.04
O=C(c1ccc2[nH]ccc2c1)N1CCN(C(c2ccc(F)cc2)c2ccc(F)cc2)CC1 | 1.05
O=C(c1ccc(Cl)c(Cl)c1)N1CCN(c2cccc(Cl)c2)CC1 | 6.03
O=C(c1ccc(Cl)c(Cl)c1)N1CCN(c2ccccc2)CC1 | 17.8
O=C(c1ccc(F)cc1)N1CCN(c2cccc(Cl)c2)CC1 | 9.77
Cc1ccc(C(=O)N2CCN(C(c3ccc(F)cc3)c3ccc(F)cc3)CC2)cc1 | 1.91
O=C(c1cccc(Cl)c1)N1CCN(c2cccc(Cl)c2)CC1 | 6.76
CC(C)c1ccc(C(=O)N2CCN(c3cccc(Cl)c3)CC2)cc1 | 100
Cc1ccc(N2CCN(C(=O)c3ccc(C(C)(C)C)cc3)CC2)cc1Cl | 100
Cc1ccc(C(=O)N2CCN(c3ccccc3)CC2)cc1 | 16.6
Cc1ccc(C(=O)N2CCN(c3cccc(C(F)(F)F)c3)CC2)cc1 | 6.31
O=C(c1ccccc1)N1CCN(Cc2ccccc2)CC1 | 31.6
CC(C)(C)c1ccc(C(=O)N2CCN(c3cccc(Cl)c3)CC2)cc1 | 100
Cc1cccc(C(=O)N2CCN(c3cccc(Cl)c3)CC2)c1 | 9.33
Cc1ccc(C(=O)N2CCN(c3cccc(Cl)c3)CC2)cc1 | 3.09
O=C(c1ccccc1F)N1CCC(Cc2ccccc2)CC1 | 14.1
Cc1ccc(C(=O)N2CCN(c3cccc(C(F)(F)F)c3)CC2)cc1C | 1.86
